From patent publication US6914045B2, “Glycopeptide antibiotics” (Wyeth Holdings Corporation, priority 2001, dated 2005)
Converted amounts (≈) assume the structure as drawn.

Columns and labels:
Assay in all cases: in vitro antibacterial evaluation, MIC by broth dilution
Format in all cases: cell-based
Enterococcus sp. = details: broth dilution, 18 hours at 35° C.
In short: (§1)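 Following National Committee for Clinical Laboratory Standards recommendations (M7-A2), susceptibility was measured by dilution in Muller-Hinton II […]. Bacteria were seeded at 5×10^5 CFU/mL against compound concentrations from 64 down to 0.06 μg/mL.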

Staphylococcus sp. = details: broth dilution, 18 hours at 35° C.
In short: as §1

Streptococcus sp. = details: broth dilution, 18 hours at 35° C.
In short: as §1

Escherichia coli = details: 18 hours at 35° C.

MIC Enterococcus avium (GC 4558) (Enterococcus sp.): 16 µg/mL (≈ 11.2 µM) | MIC Enterococcus faecalis (ATCC 29212) (Enterococcus sp.): 16 µg/mL (≈ 11.2 µM) | MIC Enterococcus faecalis (GC 2242) (Enterococcus sp.): 16 µg/mL (≈ 11.2 µM) | MIC Enterococcus faecalis (GC 2691) (Enterococcus sp.): 16 µg/mL (≈ 11.2 µM) | MIC Enterococcus faecalis (GC 3059) (Enterococcus sp.): 32 µg/mL (≈ 22.3 µM) | MIC Enterococcus faecalis (GC 4552) (Enterococcus sp.): 16 µg/mL (≈ 11.2 µM) | MIC Enterococcus faecalis (GC 4553) (Enterococcus sp.): 16 µg/mL (≈ 11.2 µM) | MIC Enterococcus faecalis (GC 4554) (Enterococcus sp.): 32 µg/mL (≈ 22.3 µM) | MIC Enterococcus faecalis (GC 6189) (Enterococcus sp.): 16 µg/mL (≈ 11.2 µM) | MIC Enterococcus faecium (GC 2243) (Enterococcus sp.): 16 µg/mL (≈ 11.2 µM) | MIC Enterococcus faecium (GC 4556) (Enterococcus sp.): 16 µg/mL (≈ 11.2 µM) | MIC Enterococcus faecium (GC 4557) (Enterococcus sp.): 4 µg/mL (≈ 2.79 µM) | MIC Enterococcus faecalis (ATCC 29212) (Enterococcus sp.; strain ATCC 29212): 16 µg/mL (≈ 11.2 µM) | MIC Enterococcus faecium (GC 2243) (Enterococcus sp.; strain GC 2243): 16 µg/mL (≈ 11.2 µM) | MIC Enterococcus faecalis (GC 4552) (Enterococcus sp.; strain GC 4552): 16 µg/mL (≈ 11.2 µM) | MIC Enterococcus faecalis (GC 4553) (Enterococcus sp.; strain GC 4553): 16 µg/mL (≈ 11.2 µM) | MIC Enterococcus faecalis (GC 4554) (Enterococcus sp.; strain GC 4554): 32 µg/mL (≈ 22.3 µM) | MIC Enterococcus faecium (GC 4556) (Enterococcus sp.; strain GC 4556): 16 µg/mL (≈ 11.2 µM) | MIC Enterococcus faecium (GC 4557) (Enterococcus sp.; strain GC 4557): 4 µg/mL (≈ 2.79 µM) | MIC Enterococcus avium (GC 4558) (Enterococcus sp.; strain GC 4558): 16 µg/mL (≈ 11.2 µM) | MIC Enterococcus faecalis (GC 6189) (Enterococcus sp.; strain GC 6189): 16 µg/mL (≈ 11.2 µM) | MIC Enterococcus faecalis (GC 2242) (Enterococcus sp.; inoculum 5×10^5 CFU/mL, strain GC 2242): 16 µg/mL (≈ 11.2 µM) | MIC Enterococcus faecalis (GC 2691) (Enterococcus sp.; inoculum 5×10^5 CFU/mL, strain GC 2691): 16 µg/mL (≈ 11.2 µM) | MIC Enterococcus faecalis (GC 3059) (Enterococcus sp.; inoculum 5×10^5 CFU/mL, strain GC 3059): 32 µg/mL (≈ 22.3 µM) | MIC Coagulase Negative Staphylococcus (GC 4547) (Staphylococcus sp.): 2 µg/mL (≈ 1.4 µM) | MIC Coagulase Negative Staphylococcus (GC 4548) (Staphylococcus sp.): 1 µg/mL (≈ 0.698 µM) | MIC Coagulase Negative Staphylococcus (GC 4549) (Staphylococcus sp.): 1 µg/mL (≈ 0.698 µM) | MIC Coagulase Negative Staphylococcus (GC 4551) (Staphylococcus sp.): 4 µg/mL (≈ 2.79 µM) | MIC Coagulase Negative Staphylococcus (GC 6257) (Staphylococcus sp.): 1 µg/mL (≈ 0.698 µM) | MIC Staphylococcus aureus (ATCC 29213) (Staphylococcus sp.): 4 µg/mL (≈ 2.79 µM) | MIC Staphylococcus aureus (GC 1131) (Staphylococcus sp.): 4 µg/mL (≈ 2.79 µM) | MIC Staphylococcus aureus (GC 3051) (Staphylococcus sp.): 2 µg/mL (≈ 1.4 µM) | MIC Staphylococcus aureus (GC 3053) (Staphylococcus sp.): 4 µg/mL (≈ 2.79 µM) | MIC Staphylococcus aureus (GC 4541) (Staphylococcus sp.): 2 µg/mL (≈ 1.4 µM) | MIC Staphylococcus aureus (GC 4542) (Staphylococcus sp.): 8 µg/mL (≈ 5.58 µM) | MIC Staphylococcus aureus (GC 4544) (Staphylococcus sp.): 4 µg/mL (≈ 2.79 µM) | MIC Staphylococcus aureus (GC 4545) (Staphylococcus sp.): 2 µg/mL (≈ 1.4 µM) | MIC Staphylococcus aureus-SMITH (GC 4543) (Staphylococcus sp.): 2 µg/mL (≈ 1.4 µM) | MIC Staphylococcus aureus (ATCC 29213) (Staphylococcus sp.; strain ATCC 29213): 4 µg/mL (≈ 2.79 µM) | MIC Staphylococcus aureus (GC 1131) (Staphylococcus sp.; strain GC 1131): 4 µg/mL (≈ 2.79 µM) | MIC Staphylococcus aureus (GC 3051) (Staphylococcus sp.; strain GC 3051): 2 µg/mL (≈ 1.4 µM) | MIC Staphylococcus aureus (GC 3053) (Staphylococcus sp.; strain GC 3053): 4 µg/mL (≈ 2.79 µM) | MIC Staphylococcus aureus (GC 4541) (Staphylococcus sp.; strain GC 4541): 2 µg/mL (≈ 1.4 µM) | MIC Staphylococcus aureus (GC 4542) (Staphylococcus sp.; strain GC 4542): 8 µg/mL (≈ 5.58 µM) | MIC Staphylococcus aureus-SMITH (GC 4543) (Staphylococcus sp.; strain GC 4543): 2 µg/mL (≈ 1.4 µM) | MIC Staphylococcus aureus (GC 4544) (Staphylococcus sp.; strain GC 4544): 4 µg/mL (≈ 2.79 µM) | MIC Staphylococcus aureus (GC 4545) (Staphylococcus sp.; strain GC 4545): 2 µg/mL (≈ 1.4 µM) | MIC Coagulase Negative Staphylococcus (GC 4547) (Staphylococcus sp.; strain GC 4547): 2 µg/mL (≈ 1.4 µM) | MIC Coagulase Negative Staphylococcus (GC 4548) (Staphylococcus sp.; strain GC 4548): 1 µg/mL (≈ 0.698 µM) | MIC Coagulase Negative Staphylococcus (GC 4549) (Staphylococcus sp.; strain GC 4549): 1 µg/mL (≈ 0.698 µM) | MIC Coagulase Negative Staphylococcus (GC 4551) (Staphylococcus sp.; strain GC 4551): 4 µg/mL (≈ 2.79 µM) | MIC Coagulase Negative Staphylococcus (GC 6257) (Staphylococcus sp.; strain GC 6257): 1 µg/mL (≈ 0.698 µM) | MIC Streptococcus agalactiae (GC 4564) (Streptococcus sp.): 2 µg/mL (≈ 1.4 µM) | MIC Streptococcus pneumoniae (ATCC 6301) (Streptococcus sp.): 0.5 µg/mL (≈ 0.349 µM) | MIC Streptococcus pneumoniae (GC 1894) (Streptococcus sp.): 0.25 µg/mL (≈ 0.174 µM) | MIC Streptococcus pneumoniae (GC 4565) (Streptococcus sp.): 0.5 µg/mL (≈ 0.349 µM) | MIC Streptococcus pyogenes (GC 4563) (Streptococcus sp.): 1 µg/mL (≈ 0.698 µM) | MIC Streptococcus pneumoniae (ATCC 6301) (Streptococcus sp.; inoculum 5×10^5 CFU/mL, strain ATCC 6301): 0.5 µg/mL (≈ 0.349 µM) | MIC Streptococcus pneumoniae (GC 1894) (Streptococcus sp.; inoculum 5×10^5 CFU/mL, strain GC 1894): 0.25 µg/mL (≈ 0.174 µM) | MIC Streptococcus pyogenes (GC 4563) (Streptococcus sp.; inoculum 5×10^5 CFU/mL, strain GC 4563): 1 µg/mL (≈ 0.698 µM) | MIC Streptococcus agalactiae (GC 4564) (Streptococcus sp.; inoculum 5×10^5 CFU/mL, strain GC 4564): 2 µg/mL (≈ 1.4 µM) | MIC Streptococcus pneumoniae (GC 4565) (Streptococcus sp.; inoculum 5×10^5 CFU/mL, strain GC 4565): 0.5 µg/mL (≈ 0.349 µM) | MIC Escherichia coli (ATCC 25922) (Escherichia coli): 64 µg/mL (≈ 44.6 µM) | MIC Escherichia coli (GC 4559) (Escherichia coli): 64 µg/mL (≈ 44.6 µM) | MIC Escherichia coli (GC 4560) (Escherichia coli): 1 µg/mL (≈ 0.698 µM)
SMILES: COc1ccc(COCC2OC(OC3C(CO)OC(Oc4ccc(CC5NC(=O)C(C(C)c6ccccc6)NC(=O)CNC(=O)C(CO)NC(=O)C(C(O)C6CNC(=N)N6C6OC(CO)C(O)C(O)C6O)NC(=O)C(C(O)C6CNC(=N)N6)NC5=O)cc4)C(O)C3O)C(O)C(O)C2O)cc1F (stereo not shown) [Example 237]
MIC Staphylococcus haemolyticus (GC 4546) (Staphylococcus sp.): 1 µg/mL (≈ 0.698 µM) | MIC Staphylococcus haemolyticus (GC 4546) (Staphylococcus sp.; strain GC 4546): 1 µg/mL (≈ 0.698 µM)
